According to patent publication US20210260055A1, “TOPICAL FORMULATIONS OF DGAT1 INHIBITORS AND THEIR METHODS OF USE” (Dermavant Sciences GmbH, priority 2018, published 2021):
Read-outs that look alike come from different tables or passages of the source.

What was measured:
[1] = Toxicokinetic assessment of systemic exposure in minipigs following dermal administration; assay type: in vivo; conditions: Göttingen, minipig, plasma, topical or ocular; for AUC(0-t): read-out: AUC0-24; for Tmax: Median (Min-Max)
Protocol: Male and female göttingen minipigs were dosed daily for a period of 28 days in a GLP toxicity study with DMVT-503 gel at 0.1%, 0.3%, and 0.6%. DMVT-503 concentrations were quantitated using a validated LC-MS/MS method and toxicokinetic parameters were calculated for all dosing groups, sexes, and sampling occasions. The systemic exposures observed in this study are supportive of the effective delivery of DMVT-503 into and through minipig skin by the gel formulations tested. Table 10 presents the summary as mean±SD on Days 1 and 28 following daily dermal application of DMVT-503 gel formulations at 0.1%, 0.3%, and 0.6% (2, 6, and 12 mg/kg/day, respectively).

[2] = tested on: Human immortalized sebocytes; experiment: 14C-Acetate Sebocyte Lipid Accumulation Assay; assay type: cell-based; conditions: day 2, 16 hour treatment with 1 μM T0901317, then 1 μM insulin for 4 hours
Protocol: This assay examines the ability of compounds to modulate the incorporation of label into de novo lipid synthesis. Cells were seeded in collagen 1-coated Scintiplates. Compounds were added in the presence of Liver X Receptor (LXR) agonist (T0901317) overnight. The medium was replaced with treatments and stimulated with 1 μM insulin for 4 hours in Labeling Medium containing 14C-acetate. Label incorporation was determined by washing the cells to removed excess label and allowing the cell layer to air dry before assessing labeling through Scintiplate counting normalized to Cell Titer Blue viability reagent.
Protocol—Day 1: Human immortalized sebocytes were seeded at 10,000 cells/well in a 96-well white, clear bottom collagen 1-coated Scintiplate in Sebocyte Growth Medium and allowed to attach overnight at 37° C. Day 2: Medium was refreshed by removing seeding medium and adding fresh Sebocyte Growth Medium. […] 3) Plates were read at Ex. 560 Em.590 with a cutoff of 570 nm for CTB signal. […] 5) 14C-acetate labeling was determined by scintillation counting in a MicroBeta TriLux Scintillation Counter.
Data analysis—Cell viability is presented as cell titer blue fluorescence reading (RFU) for each treatment. […] The percent of LXR agonist+Insulin-stimulated lipogenesis was calculated by taking the ratio of each CPM measure over the corresponding cell titer blue measure. […]

[3] = female, 2 mg/kg/day, Day 1, Female, 2 mg/kg/day, 0.1% gel
[4] = female, 2 mg/kg/day, Day 28, Female, 2 mg/kg/day, 0.1% gel
[5] = female, 6 mg/kg/day, Day 1, Female, 6 mg/kg/day, 0.3% gel
[6] = female, 6 mg/kg/day, Day 28, Female, 6 mg/kg/day, 0.3% gel
[7] = female, 12 mg/kg/day, Day 1, Female, 12 mg/kg/day, 0.6% gel
[8] = female, 12 mg/kg/day, Day 28, Female, 12 mg/kg/day, 0.6% gel
[9] = male, 2 mg/kg/day, Day 1, Male, 2 mg/kg/day, 0.1% gel
[10] = male, 2 mg/kg/day, Day 28, Male, 2 mg/kg/day, 0.1% gel
[11] = male, 6 mg/kg/day, Day 1, Male, 6 mg/kg/day, 0.3% gel
[12] = male, 6 mg/kg/day, Day 28, Male, 6 mg/kg/day, 0.3% gel
[13] = male, 12 mg/kg/day, Day 1, Male, 12 mg/kg/day, 0.6% gel
[14] = male, 12 mg/kg/day, Day 28, Male, 12 mg/kg/day, 0.6% gel

**Q.** What does the source list for `Cc1nc(C)c(-c2ccc([C@H]3CC[C@H](CC(=O)O)CC3)cc2)nc1C(N)=O` [DMVT-503, 2-((1R,4R)-4-(4-(6-carbamoyl-3,5-dimethylpyrazin-2-yl)phenyl)cyclohexyl)acetic acid]?
**A.** Cmax [1, 3]: 37.3 ng/mL; AUC(0-t) [1, 3]: 323 ng·h/mL; Cmax [1, 4]: 193 ng/mL; AUC(0-t) [1, 4]: 3940 ng·h/mL; Tmax [1, 3]: 24 h; Tmax [1, 4]: 1 h; Cmax [1, 5]: 210 ng/mL; AUC(0-t) [1, 5]: 1750 ng·h/mL; Cmax [1, 6]: 487 ng/mL; AUC(0-t) [1, 6]: 8660 ng·h/mL; Tmax [1, 5]: 24 h; Tmax [1, 6]: 0 h; Cmax [1, 7]: 171 ng/mL; AUC(0-t) [1, 7]: 1490 ng·h/mL; Cmax [1, 8]: 1370 ng/mL; AUC(0-t) [1, 8]: 25400 ng·h/mL; Tmax [1, 7]: 24 h; Tmax [1, 8]: 0 h; Cmax [1, 9]: 35.1 ng/mL; AUC(0-t) [1, 9]: 307 ng·h/mL; Cmax [1, 10]: 19.6 ng/mL; AUC(0-t) [1, 10]: 3970 ng·h/mL; Tmax [1, 9]: 24 h; Tmax [1, 10]: 0 h; Cmax [1, 11]: 53 ng/mL; AUC(0-t) [1, 11]: 478 ng·h/mL; Cmax [1, 12]: 940 ng/mL; AUC(0-t) [1, 12]: 17500 ng·h/mL; Tmax [1, 11]: 24 h; Tmax [1, 12]: 2 h; Cmax [1, 13]: 103 ng/mL; AUC(0-t) [1, 13]: 10500 ng·h/mL; Cmax [1, 14]: 1160 ng/mL; AUC(0-t) [1, 14]: 22300 ng·h/mL; Tmax [1, 13]: 24 h; Tmax [1, 14]: 1 h; IC50 ([2]; Homo sapiens): 49.6 nM

**Q.** Which IC50 [2] does the source give for `CC1=C(/C=C/C(C)=C/C=C/C(C)=C\C(=O)O)C(C)(C)CCC1` [Mix 13-cis-RA, 13-cis-retinoic Acid, reference compound] here?
**A.** Its IC50 is 333 nM.
